Results published in patent US11986482B2, “Method of promoting antitumor or anti-cancer immunity” (City University of Hong Kong, priority 2021, dated 2024).
Entries after “also recorded” stand apart in the source; their conditions may differ.

Key:
4T1 primary tumors = experiment: Chemokine levels in microenvironment of 4T1 primary tumors; assay type: in vivo, mouse; conditions: 4T1 tumors isolated at end of experiment
Method: Inventors further measure the chemokines or cytokines in these primary tumor tissues. The tumors are isolated at the end of experiments, and the chemokine levels in the microenvironment of 4T1 primary tumors treated with the vehicle or 6J1 are determined by Flow cytometry-based quantification. In FIGS. 9a-9c, data are reported in μg/ml, standardized to the excised tumor weight (in grams); each dot represents one mouse.

PD-L1 = experiment: Western blot of PD-L1 in total cell lysates and exosomes of HeLa cells; assay type: cell-based; conditions: for 6J1-induced exosomal PD-L1 secretion: 1 μM, 24 h
Method: PD-L1 has been previously shown to be secreted outside the cell through exosomes. HeLa cells are plated on coverslips in 24-well plates and stained with the anti-PD-L1 antibody on ice for 1 h. At the indicated times after being incubated at a warm medium at 37° C., cells are fixed and stained with antibodies against CD63 or Rab27a. […] Cells are treated with or without ionomycin (1 μM) for 48 h. The supernatant is collected and subjected to western blot analysis. […] Since the amphisome, which is formed by the fusion of the autophagosome with the MVB/late endosome, has been implicated in extracellular vesicles secretion, and PD-L1 is found to be associated with LC3B during PD-L1 trafficking (FIG. 2a), inventors examine whether the autophagosome formation is involved in exosomal PD-L1 secretion. Thus, inventors knock out the expression of Rab27A, LC3B or ATG4B in HeLa cells and collect their supernatant respectively for western blot analysis.
Furthermore, HeLa cells are treated with or without Bafilomycin A1 (10 nM), or Torin 1 (100 nM) for 48 h. The cell lysates and supernatant are collected for western blot analysis. […] In contrast, Torin1, an autophagy activator, has little effect on total and exosomal PD-L1 levels (FIG. 2g). […] On the other hand, blockage on the fusion between lysosomes and late endosomes or autophagosomes may induce PD-L1 secretion via exosomes.
It has previously been shown that interfering with endosomal trafficking promotes exosome secretion. Moreover, PD-L1 has been reported to be enriched in exosomes and secreted outside the cell. Thus, inventors speculate that 6J1 may induce the secretion of the PD-L1 trapped in the endosomal compartments via exosomes. To determine whether 6J1 may induce the secretion of PD-L1 via exosomes, HeLa cells are treated with or without 6J1 (1 μM) for 24 h. The supernatant is collected. Inventors purify the exosomes from the supernatant of HeLa cells by sequential centrifugation. The concentration of extracellular vesicle is determined using a Nanosight nanoparticle analyzer. And HeLa cells are treated with or without 6J1 (1 μM) for 48 h. The cell and supernatant are collected for Western Blot analysis. […] Moreover, the activity of Rab27a in HeLa cells treated with or without 6J1 (1 μM) is examined with a GST-SHD pulldown assay.
Moreover, ATG5- or LC3-knockout HeLa cells are treated with or without 6J1 (1 μM) for 24 h. The supernatant is collected, and the concentration of the extracellular vesicle is determined using a Nanosight nanoparticle analyzer. The exosomes are also collected and subjected to western blot analysis of the EVs marker and PD-L1 in FIG. 7a. The live cells are also labeled with an anti-PD-L1 antibody in FIG. 7b and subjected to flow cytometry analysis in FIG. 7c. […] In addition, inventors assess whether other autophagy-related genes, e.g., ATG4B, ATG7, Beclin1, and Vps34 are involved in 6J1-mediated exosomal PD-L1 secretion. ATG4B-, ATG7-, Beclin1-, or VPS34-knockout HeLa cells are treated with or without 6J1 (1 μM) for 24 h. The supernatant is collected, and the concentration of extracellular vesicle is determined using a Nanosight nanoparticle analyzer. The exosomes are also collected and subjected to western blot analysis of the EVs marker and PD-L1 in FIG. 7d. The live cells are also labeled with an anti-PD-L1 antibody and subjected to flow cytometry analysis in FIG. 7e.

## OCCOCCN(c1ccccc1)c1nc(N/N=C/c2cccc(I)c2)nc(N2CCOCC2)n1 [Compound 6J1]
4T1 primary tumors
  secretion of chemokines CCL2, CCL3, CCL4, CXCL9 in tumor microenvironment: significantly increases the secretion of some chemokines
  secretion of chemokines CCL5, CCL11, CCL17, CCL22, CXCL1, CXCL5, CXCL10, CXCL13 in tumor microenvironment: little or only subtle effects on others; also recorded: little or only subtly effects on others
PD-L1; ATG4B-, ATG7-, Beclin1- or VPS34-knockout HeLa cells
  6J1-induced exosomal PD-L1 secretion: fails to abolish
PD-L1; ATG5- or LC3B-knockout HeLa cells
  6J1-induced exosomal PD-L1 secretion: Neither ATG5 nor LC3B knockout impairs
PD-L1; HeLa cells, 48 h, ionomycin 1 μM, Bafilomycin A1 10 nM, Torin 1 100 nM, 6J1 1 μM
  exosomal PD-L1 level: increases PD-L1 level in exosomes
